This note sets out measurements from patent US20230141034A1, “ADAMANTANE-1-CARBONYL THIOUREA, AS P2X RECEPTOR ANTAGONIST” (COMSATS UNIVERSITY ISLAMABAD, priority 2021, published 2023).

Test system in the first data set: not listed separately
Kind of data set: MTT cytotoxicity assay, HEK-293 cell line. Conditions: human, HEK-293 cells, final concentration of 50 μM. The data set is classed as cell-based. As for the experimental part:
(§1) Cellular safety profiling of adamantane thioureas were done through MTT assay. All compounds were analyzed for toxicity at final concentration of 50 μM. […] Toxicity was determined against two cancer cell lines including human 1321N1 Astrocytoma cell line, HeLa cell line and a normal HEK-293 cell line.
(§2) c. Cell Viability Assay (MTT Assay)
(§3) After 24 h of incubation at 37° C. in CO2 incubator, culture media will be replaced with serum-free media along with test compounds and re-incubate. After 24 h, media will be removed and add 100 μL of MTT reagent (0.5-5 mg/mL) and will be incubated for a further 4 h, at 37° C. Absorbance will be measured at 570 and 630 nm to calculate cell viability.
For orientation: Formazan colour is commonly taken as a measure of viable cells.
Take `CN(C)CCCNC(=S)NC(=O)C12CC3CC(CC(C3)C1)C2` [Ir, N-((3-(dimethylamino)propyl)carbamothioyl)adamantane-1-carboxamide]: the cytotoxicity at 24 h, 50 µM is 5.16%.

For the next data set, the system named is HEK-293 cell line. Kind of data set: MTT cytotoxicity assay, HEK-293 cell line. The class given is cell-based. Conditions: final concentration of 50 μM. As for the experimental part:
as §1, §2, §3
As to `CC(C)c1cc(Br)c(NC(=O)Nc2cccnc2)c(Br)c1` [BX-430, reference compound], the “HEK-293 Cell Line (% cytotoxicity)” value was determined as 2.85%.

Take `Cc1nc(N=Nc2ccc(S(=O)(=O)O)cc2S(=O)(=O)O)c(COP(=O)(O)O)c(C=O)c1O` [PPADS, reference compound]: the “HEK-293 Cell Line (% cytotoxicity)” value came to 42.58%.

For the compound `Nc1c(S(=O)(=O)O)cc(Nc2ccc(Nc3nc(Cl)nc(Nc4cccc(S(=O)(=O)O)c4)n3)c(S(=O)(=O)O)c2)c2c1C(=O)c1ccccc1C2=O` [Reactive Blue 2, reference compound], the “HEK-293 Cell Line (% cytotoxicity)” value amounted to 39.89%.

For the next data set, the target named is h-P2X5 (Homo sapiens, UniProt Q93086). Kind of data set: Ca2+ flux assay h-P2X5. Conditions: read-out: h-P2X5 % Inhibition. For orientation: A change in cytosolic calcium serves as a functional read-out for many receptors and channels.
h-P2X5, sequence (Q93086 whole entry): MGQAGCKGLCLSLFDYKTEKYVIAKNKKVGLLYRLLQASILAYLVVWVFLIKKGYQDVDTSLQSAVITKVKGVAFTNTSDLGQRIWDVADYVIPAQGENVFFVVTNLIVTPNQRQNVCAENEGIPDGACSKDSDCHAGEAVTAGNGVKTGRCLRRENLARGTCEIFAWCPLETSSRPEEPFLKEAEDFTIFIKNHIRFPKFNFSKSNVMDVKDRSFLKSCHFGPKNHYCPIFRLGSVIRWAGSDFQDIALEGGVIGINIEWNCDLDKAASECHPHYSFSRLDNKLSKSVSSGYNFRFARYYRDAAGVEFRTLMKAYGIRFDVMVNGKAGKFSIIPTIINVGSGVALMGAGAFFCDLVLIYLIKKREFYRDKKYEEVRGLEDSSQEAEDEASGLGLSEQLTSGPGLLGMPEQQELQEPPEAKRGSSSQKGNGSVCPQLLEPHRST
Experimental: (§5) Compounds were initially analyzed at a final concentration of about 50 μM and percentage of inhibition was calculated.
(§6) Calcium Mobilization Assay to Measure P2X Receptors Response Cell Culture: P2X receptors functions can be analyzed from ATP-induced increase in cytosolic Ca^2+ concentration. Two Ca^2+ chelating dyes, Fura-2 AM and Fluo-4 AM can be used to determine the intracellular Ca^2+ concentration through a fluorescent imaging micro-titer plate reader (BMG Labtech: FLUOstar Galaxy®). Non-transfected human 1321N1 astrocytoma cells, as well as P2X receptors transfected human 1321N1 astrocytoma cells will be cultured in T-75 cm^2 cell culture flask having appropriate cell culture growth media; Dulbecco's Modified Eagle's medium (DMEM) supplemented with 10% fetal bovine serum (FBS), 75 μg/mL of Hygromycin B or human P2X receptors transfected cell lines and 1% pen-strep (antibiotics). Cells will be incubated at 37° C. in 5% CO2 incubator until 80 to 90% cell confluency will be achieved. Cells will be maintained in an exponential growth phase throughout the experiment and closely monitored for contamination.
Measurement of Ca^2+ Flux
(§7) When 1321N1 cells will reach 80 to 90% of confluency, cells will be harvested from T-75 cm^2 flask by trypsinization. After washing the cells with phosphate buffer saline (PBS), cells will be seeded at a density of 20,000 cells/well in black, clear bottom, poly-D-lysine coated 96 well plate. After 16 to 24 h, cell culture media will be removed and add Hank's balanced salt solution (HBSS) containing 3 μM Ca^2+ chelating dyes Fura-2 AM or Fluo-4 AM. After 1 h of incubation at 23° C., the loading dye solution will be removed, and added seven to eight dilutions of test compounds in triplicate format. ATP (at a concentration value of EC80) or buffer will be added and measured the excitation and emission at 340/520 nm and 380/520 nm through FLUOStar Galaxy®. Assay volume for the experiment will be 200 μL. IC50 and EC50 values will be calculated by PRISM 5.0 (GrapgPad, San Diego, Calif., USA) through non-linear regression analysis.
`CN(C)CCCNC(=S)NC(=O)C12CC3CC(CC(C3)C1)C2` [Ir, N-((3-(dimethylamino)propyl)carbamothioyl)adamantane-1-carboxamide]: the inhibition (in general, the change of the read-out against control, counted positive when it falls) at 50 µM is 11.2%.

Another data set deals with T1, h-P2X2 (Homo sapiens, UniProt Q9UBL9).
T1 sequence (Q9UBL9 1-471): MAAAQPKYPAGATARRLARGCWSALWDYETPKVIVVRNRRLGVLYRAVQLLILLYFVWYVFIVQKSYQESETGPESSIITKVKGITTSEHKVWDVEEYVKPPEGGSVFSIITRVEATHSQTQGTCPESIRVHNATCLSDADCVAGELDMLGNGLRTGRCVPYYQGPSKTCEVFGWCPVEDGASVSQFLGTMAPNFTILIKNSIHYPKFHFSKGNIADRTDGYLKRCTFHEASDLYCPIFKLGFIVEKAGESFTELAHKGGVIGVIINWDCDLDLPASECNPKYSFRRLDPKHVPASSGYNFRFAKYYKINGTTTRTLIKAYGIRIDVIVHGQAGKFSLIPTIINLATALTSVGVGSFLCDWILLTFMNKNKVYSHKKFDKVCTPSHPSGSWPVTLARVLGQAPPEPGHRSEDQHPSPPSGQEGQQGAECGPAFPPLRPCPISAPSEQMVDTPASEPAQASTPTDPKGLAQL
In words: Ca2+ flux assay h-P2X2. To be noted: read-out: h-P2X2 % Inhibition.
Experimental: as §5, §6
Measurement of Ca^2+ Flux
as §7
`CN(C)CCCNC(=S)NC(=O)C12CC3CC(CC(C3)C1)C2` [Ir, N-((3-(dimethylamino)propyl)carbamothioyl)adamantane-1-carboxamide]: the inhibition at 50 µM came out at 2.15%.

Still in this data set, the particulars now being: read-out: h-P2X2 IC50 ± SEM; Ca2+ flux, n = 3.
As for `Nc1c(S(=O)(=O)O)cc(Nc2ccc(Nc3nc(Cl)nc(Nc4cccc(S(=O)(=O)O)c4)n3)c(S(=O)(=O)O)c2)c2c1C(=O)c1ccccc1C2=O` [Reactive Blue 2, reference compound], the IC50 – broadly, the midpoint of a concentration-inhibition curve – was found to be 0.89 ± 0.41 µM.

For another data set, the target named is T2, h-P2X4 (Homo sapiens, UniProt Q99571).
T2 sequence (Q99571 1-388): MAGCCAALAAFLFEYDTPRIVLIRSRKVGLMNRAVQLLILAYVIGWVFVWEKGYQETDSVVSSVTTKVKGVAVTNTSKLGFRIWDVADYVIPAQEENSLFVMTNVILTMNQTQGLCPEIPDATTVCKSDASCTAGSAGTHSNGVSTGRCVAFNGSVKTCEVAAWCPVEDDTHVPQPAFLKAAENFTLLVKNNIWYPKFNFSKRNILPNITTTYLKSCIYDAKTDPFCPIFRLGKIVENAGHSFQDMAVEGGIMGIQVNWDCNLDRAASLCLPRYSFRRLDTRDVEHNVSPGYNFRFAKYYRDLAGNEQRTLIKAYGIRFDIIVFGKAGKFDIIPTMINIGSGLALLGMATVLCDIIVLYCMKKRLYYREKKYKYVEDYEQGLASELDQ
Kind of data set: Ca2+ flux assay h-P2X4. Conditions: read-out: h-P2X4 % Inhibition.
Experimental: as §5, §6
Measurement of Ca^2+ Flux
as §7
As for `CN(C)CCCNC(=S)NC(=O)C12CC3CC(CC(C3)C1)C2` [Ir, N-((3-(dimethylamino)propyl)carbamothioyl)adamantane-1-carboxamide], the inhibition at 50 µM turned out to be 0%.

Another data set has as its target T3, h-P2X7 (Homo sapiens, UniProt Q99572).
T3 sequence (Q99572 1-595): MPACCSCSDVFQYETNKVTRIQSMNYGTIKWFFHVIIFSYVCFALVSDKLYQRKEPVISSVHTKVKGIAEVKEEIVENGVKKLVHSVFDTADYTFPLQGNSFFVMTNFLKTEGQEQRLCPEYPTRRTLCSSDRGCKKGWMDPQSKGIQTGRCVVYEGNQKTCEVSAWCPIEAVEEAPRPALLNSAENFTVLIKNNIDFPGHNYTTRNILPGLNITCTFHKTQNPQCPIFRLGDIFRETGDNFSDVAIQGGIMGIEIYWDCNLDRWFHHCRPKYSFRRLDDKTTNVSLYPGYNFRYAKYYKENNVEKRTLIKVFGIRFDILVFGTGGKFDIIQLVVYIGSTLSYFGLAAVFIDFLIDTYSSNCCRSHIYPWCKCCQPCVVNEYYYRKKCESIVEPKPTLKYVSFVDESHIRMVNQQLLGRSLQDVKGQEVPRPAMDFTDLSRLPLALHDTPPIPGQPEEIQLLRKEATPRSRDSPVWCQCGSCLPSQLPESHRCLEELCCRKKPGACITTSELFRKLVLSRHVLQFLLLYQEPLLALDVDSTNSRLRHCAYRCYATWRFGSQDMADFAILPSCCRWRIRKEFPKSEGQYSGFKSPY
In words: Mode of receptor inhibition, BzATP dose-response curve at h-P2X7R. The class given is cell-based. Details: expressed in transfected cells; host or cells: human 1321N1 astrocytoma cells. To be noted: BzATP without inhibitor; read-out: EC50 of BzATP induced response. As for the experimental part:
(§4) Different dilutions of compounds were administered to receptors expressed cell line.
`Nc1ncnc2c1ncn2[C@@H]1O[C@H](COP(=O)(O)OP(=O)(O)OP(=O)(O)O)[C@@H](OC(=O)c2ccc(C(=O)c3ccccc3)cc2)[C@H]1O` [BzATP, reference compound]: the EC50 – broadly, the concentration that produces a half-maximal response – is 7.09 µM.

Test system in another data set: not listed separately
In words: MTT cytotoxicity assay, human 1321N1 astrocytoma cell line. The class given is cell-based. Conditions: human, 1321N1 astrocytoma cells, final concentration of 50 μM. As to the method:
as §1, §2, §3
`CN(C)CCCNC(=S)NC(=O)C12CC3CC(CC(C3)C1)C2` [Ir, N-((3-(dimethylamino)propyl)carbamothioyl)adamantane-1-carboxamide] displayed a cytotoxicity at 24 h, 50 µM of 10.1%.

Another data set deals with human 1321N1 Astrocytoma cell line. The description is as above. The data set is classed as cell-based. Conditions: final concentration of 50 μM. As for the experimental part: as §1, §2, §3
As to `CC(C)c1cc(Br)c(NC(=O)Nc2cccnc2)c(Br)c1` [BX-430, reference compound], the “Human 1321N1 Astrocytoma Cell Line (% cytotoxicity)” value was 20.21%.

Regarding `Cc1nc(N=Nc2ccc(S(=O)(=O)O)cc2S(=O)(=O)O)c(COP(=O)(O)O)c(C=O)c1O` [PPADS, reference compound], the “Human 1321N1 Astrocytoma Cell Line (% cytotoxicity)” value is on record as 19.02%.

For the compound `Nc1c(S(=O)(=O)O)cc(Nc2ccc(Nc3nc(Cl)nc(Nc4cccc(S(=O)(=O)O)c4)n3)c(S(=O)(=O)O)c2)c2c1C(=O)c1ccccc1C2=O` [Reactive Blue 2, reference compound], the “Human 1321N1 Astrocytoma Cell Line (% cytotoxicity)” value is given as 20.82%.

The target in another data set is T2, h-P2X4. Kind of data set: Mode of receptor inhibition, ATP dose-response curve at h-P2X4R. Conditions: ATP without inhibitor; read-out: EC50 of ATP induced response. Details: expressed in transfected cells; host or cells: human 1321N1 astrocytoma cells. The class given is cell-based. As to the method: as §4
For `Nc1ncnc2c1ncn2[C@@H]1O[C@H](COP(=O)(O)OP(=O)(O)OP(=O)(O)O)[C@@H](O)[C@H]1O` [ATP, reference compound], the EC50 stood at 5.45 µM.

For another data set, the target named is T3, h-P2X7. In words: Ca2+ flux assay h-P2X7. Conditions: read-out: h-P2X7 % Inhibition.
Experimental: as §5, §6
Measurement of Ca^2+ Flux
as §7
`CN(C)CCCNC(=S)NC(=O)C12CC3CC(CC(C3)C1)C2` [Ir, N-((3-(dimethylamino)propyl)carbamothioyl)adamantane-1-carboxamide]: the inhibition at 50 µM was 5.01%.

The same data set, now with this note: read-out: h-P2X7 IC50 ± SEM; Ca2+ flux, n = 3.
On to `Nc1c(S(=O)(=O)O)cc(Nc2ccc(Nc3nc(Cl)nc(Nc4cccc(S(=O)(=O)O)c4)n3)c(S(=O)(=O)O)c2)c2c1C(=O)c1ccccc1C2=O` [Reactive Blue 2, reference compound], for which the IC50 came to 2.79 ± 0.22 µM.

For a further data set, the system named is HeLa cell line. In words: MTT cytotoxicity assay, HeLa cell line. Conditions: final concentration of 50 μM. The class given is cell-based. As for the experimental part: as §1, §2, §3
With `CC(C)c1cc(Br)c(NC(=O)Nc2cccnc2)c(Br)c1` [BX-430, reference compound], the “HeLa Cell Line (% cytotoxicity)” value is on record as 9.12%.

As for `Cc1nc(N=Nc2ccc(S(=O)(=O)O)cc2S(=O)(=O)O)c(COP(=O)(O)O)c(C=O)c1O` [PPADS, reference compound], the “HeLa Cell Line (% cytotoxicity)” value is recorded as 17.92%.

Turning to `Nc1c(S(=O)(=O)O)cc(Nc2ccc(Nc3nc(Cl)nc(Nc4cccc(S(=O)(=O)O)c4)n3)c(S(=O)(=O)O)c2)c2c1C(=O)c1ccccc1C2=O` [Reactive Blue 2, reference compound], the “HeLa Cell Line (% cytotoxicity)” value stood at 14.47%.

Test system in a further data set: not listed separately
In words: MTT cytotoxicity assay, HeLa cell line. The class given is cell-based. To be noted: human, HeLa cells, final concentration of 50 μM. As for the experimental part:
as §1, §2, §3
Regarding `CN(C)CCCNC(=S)NC(=O)C12CC3CC(CC(C3)C1)C2` [Ir, N-((3-(dimethylamino)propyl)carbamothioyl)adamantane-1-carboxamide], the cytotoxicity at 24 h, 50 µM amounted to 8.14%.
